Data from ChEMBL document CHEMBL3352601, “Discovery of potent iminoheterocycle BACE1 inhibitors” (Bioorg Med Chem Lett, 2014).
Active and inactive are the calls of the source. The rule behind the calls is not given here.

Key:
[1] = target: T1, Beta-secretase 1 (Homo sapiens, UniProt P56817)
Description: Inhibition of purified human BACE1 by FRET assay

[2] = target: Cathepsin D (Homo sapiens, UniProt P07339)
Description: Inhibition of cathepsin-D (unknown origin)

[3] = in vivo; conditions: rat, plasma, sc, 10 mg/kg
[4] = target: T1, Beta-secretase 1; assay: Inhibition of BACE1-mediated amyloid beta 40 production in HEK293-APPswe/lon cells by whole cell assay; type: cell-based
[5] = target: T1, Beta-secretase 1; assay: Inhibition of BACE1-mediated amyloid beta 40 production in HEK293-APPswe/lon cells by whole cell assay in presence of P-gp inhibitor; type: cell-based
[6] = test system: Rattus norvegicus; assay: Reduction of amyloid beta 40 level in rat plasma at 30 mg/kg, po relative to control; type: functional; parameters: scale not given: the % may be the effect or the level left
[7] = organism: Mus musculus; assay: Reduction of cortical amyloid beta 40 level in CRND8-APP mouse model; type: functional, organism-based

T1 sequence (P56817 whole entry): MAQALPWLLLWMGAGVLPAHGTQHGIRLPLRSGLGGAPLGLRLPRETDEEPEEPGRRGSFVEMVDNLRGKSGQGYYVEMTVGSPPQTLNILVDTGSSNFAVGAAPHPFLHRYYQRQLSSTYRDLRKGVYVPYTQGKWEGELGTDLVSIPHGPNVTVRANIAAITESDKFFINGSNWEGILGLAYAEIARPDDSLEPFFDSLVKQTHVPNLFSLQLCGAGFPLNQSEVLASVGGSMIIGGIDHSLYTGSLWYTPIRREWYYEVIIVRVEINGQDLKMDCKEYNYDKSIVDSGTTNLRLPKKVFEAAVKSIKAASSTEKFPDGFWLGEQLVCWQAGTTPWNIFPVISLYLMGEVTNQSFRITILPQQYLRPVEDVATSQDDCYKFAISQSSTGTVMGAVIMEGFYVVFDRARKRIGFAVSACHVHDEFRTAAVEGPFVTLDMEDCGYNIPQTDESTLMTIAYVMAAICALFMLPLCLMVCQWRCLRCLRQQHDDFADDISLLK
Chain of Cathepsin D (P07339 65-162 limits assumed): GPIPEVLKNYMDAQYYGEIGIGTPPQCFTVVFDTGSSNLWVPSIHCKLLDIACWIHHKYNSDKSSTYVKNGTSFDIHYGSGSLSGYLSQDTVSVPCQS
Chain of Cathepsin D (P07339 169-412 limits assumed): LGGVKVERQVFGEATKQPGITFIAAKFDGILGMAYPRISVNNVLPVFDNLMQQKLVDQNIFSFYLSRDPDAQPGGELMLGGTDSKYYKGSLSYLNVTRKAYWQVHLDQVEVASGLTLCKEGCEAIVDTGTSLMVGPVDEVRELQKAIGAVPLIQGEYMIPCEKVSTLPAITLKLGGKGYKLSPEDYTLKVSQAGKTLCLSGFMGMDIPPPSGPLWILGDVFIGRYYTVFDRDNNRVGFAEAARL

SMILES	Ki [1] [µM]	Ki [2] [µM]	other results
CCCNC(=O)N1CCC[C@H](C[C@@]2(CCC3CCCCC3)NC(=N)N(C)C2=O)C1	8.5	2.8	–
CCCCCN1CCC[C@H](C[C@@]2(CCC3CCCCC3)NC(=N)N(C)C2=O)C1	7.6	> 100	–
CN1C(=N)N[C@](CCC2CCCCC2)(C[C@@H]2CCCNC2)C1=O	66	> 100	–
CN1C(=N)N[C@](CCC2CCCCC2)(C[C@H]2CCC[C@@H](NC3CCCCC3)C2)C1=O	0.23	63.5	–
COc1ccc(NC(=O)N[C@@H]2CCC[C@H](C[C@@]3(CCC4CCCCC4)NC(=N)N(C)C3=O)C2)cc1	0.01	2.5	–
CN1C(=N)N[C@](CCC2CCCCC2)(C[C@H]2CCC[C@@H](NCC3CC3)C2)C1=O	0.48	53.3	–
CN1C(=N)N[C@](CCC2CCCCC2)(C[C@H]2CCCN(C(=O)CC3CCCC3)C2)C1=O	–	0.87	–
CCCCC(=O)N1CC[C@H](C[C@@]2(CCC3CCCCC3)NC(=N)N(C)C2=O)C1	0.49	23	–
CN1C(=N)N[C@](CCC2CCCCC2)(C[C@H]2CCC[C@@H](NC(=O)Nc3ccc(C#N)cc3)C2)C1=O	0.003	6.9	–
CN1C(=N)N[C@](CCC2CCCCC2)(C[C@H]2CCC[C@@H](NC(=O)Nc3ccccc3Cl)C2)C1=O	0.301	8.5	–
CN1C(=N)N[C@](CCC2CCCCC2)(C[C@H]2CCCNC2)C1=O	8.5	> 100	–
CN1C(=N)N[C@](CCC2CCCCC2)(C[C@H]2CCC[C@@H](NC(=O)Nc3ccc(Cl)cc3)C2)C1=O	0.01	> 100	–
COc1ccccc1NC(=O)N[C@@H]1CCC[C@H](C[C@@]2(CCC3CCCCC3)NC(=N)N(C)C2=O)C1	0.276	2.4	–
CN1C(=N)N[C@](CCC2CCCCC2)(C[C@@H]2CCCN(C(=O)CC3CCCC3)C2)C1=O	–	8.5	–
CN1C(=N)N[C@](CCC2CCCCC2)(C[C@H]2CCC[C@@H](NC(=O)NC3CCCCC3)C2)C1=O	0.138	6	–
CN1C(=N)N[C@](CCC2CCCCC2)(C[C@H]2CCC[C@@H](NC(=O)Nc3cnc4ccccc4n3)C2)C1=O	0.014	7.5	–
CN1C(=N)N[C@](CCC2CCCCC2)(C[C@H]2CCC[C@@H](NC(=O)Nc3ccc4ccccc4n3)C2)C1=O	0.022	25	AUC(0-t) at 6 h [3]: 0.306 µM·h; EC50 [4]: 0.258 µM; EC50 [5]: 0.11 µM; Activity [6]: 55%; Activity [7]: inactive
CCCCC(=O)N1CCC[C@H](C[C@@]2(CCC3CCCCC3)NC(=N)N(C)C2=O)C1	3.2	44	–
CN1C(=N)N[C@](CCC2CCCCC2)(C[C@H]2CCCN(C(=O)OC(C)(C)C)C2)C1=O	29	> 100	–
CN1C(=N)N[C@](CCC2CCCCC2)(C[C@H]2CCC[C@@H](NC(=O)Cc3ccccc3)C2)C1=O	0.585	3.5	–
CN1C(=N)N[C@](CCC2CCCCC2)(C[C@@H]2CCCN(C(=O)OC(C)(C)C)C2)C1=O	41	33	–
CN1C(=N)N[C@](CCC2CCCCC2)(C[C@H]2CCC[C@@H](NC(=O)c3ccccc3)C2)C1=O	0.13	3.8	–
CCCCS(=O)(=O)N1CCC[C@H](C[C@@]2(CCC3CCCCC3)NC(=N)N(C)C2=O)C1	6.3	25.5	–
CCCCC(=O)N1CC[C@@H](C[C@@]2(CCC3CCCCC3)NC(=N)N(C)C2=O)C1	17.4	–	–
CCCCC(=O)N1CCC[C@@H](C[C@@]2(CCC3CCCCC3)NC(=N)N(C)C2=O)C1	17	28	–
